Laboratory results: article doi:10.1101/2020.04.05.026310v1 (biorxiv, 2020)

B1: mPDXK (mouse pyridoxal kinase) (Mus musculus) (protein)
chain: MEGECRVLSIQSHVVRGYVGNRAAMFPLQVLGFEVDAVNSVQFSNHTGYAHWKGQVLKSQELHELYEGLKVNDVNKYDYVLTGYTRDKSFLAMVVDIVRELKQQNSRLVYVCDPVMGDKWNGEGSMYVPQDLLPVYRDKVVPVADIITPNQFEAELLSGRKIHSQEEAFEVMDMLHCMGPDTVVITSSDLPSSQGSDYLIALGSQRMRKPDGSTVTQRIRMEMRKVEAVFVGTGDLFAAMLLAWTHKHPDNLKVACEKTVSAMQHVLQRTIRCAKAEAGEGQKPSPAQLELRMVQSKRDIEDPEIVVQATVL

What was measured:
[1] = molecular target: T1, mPDXK (mouse pyridoxal kinase) (Mus musculus, UniProt Q8K183); test: photometric PLP formation at […] nm, Dixon plot; type: biochemical
T1 sequence (Q8K183 1-312): B1 chain

[2] = molecular target: T1, mPDXK (mouse pyridoxal kinase); test: photometric PLP formation at […] nm, nonlinear variable-slope fit; type: biochemical
purified protein = substrate: Cc1ncc(CO)c(C=O)c1O; test: purified protein; type: biochemical, Mus musculus; conditions: 1 mM ATP, 1 mM MgCl2, 100 mM KCl, 10 mM Hepes pH 7.3, 37 °C

Molecule	Ki [1] [µM]	IC50 [2] [µM]	Km (purified protein) [µM]	kcat (purified protein) [s⁻¹]
C[C@@H]1CC[C@H]2[C@@H](C)C(=O)O[C@@H]3O[C@@]4(C)CC[C@@H]1[C@]32OO4 [artemisinin]	120 ± 2.4	229 ± 1.3		
C[C@H]1[C@H](OC(=O)CCC(=O)O)O[C@@H]2O[C@@]3(C)CC[C@H]4[C@H](C)CC[C@@H]1[C@@]24OO3 [artesunate]	1250 ± 4.7	1445 ± 1.4		
B1			26.0 ± 5.4	0.1436 ± 0.003
